Assay results published in patent US20020137929A1, “1 - (3-heterocyclylphenyl) isothiourea, -isourea, -guanidine and -amidine herbicidal agents” (Intellectual Property Department, BASF Aktiengesellschaft, priority 1998, published 2002).

Columns and labels:
ZEAMX (Corn, Field) = test: Preemergence herbicidal evaluation; format: in vivo, Zea mays; settings: rated 4-5 weeks after treatment
Summary of the method: (§1)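 In this greenhouse assay, monocot and dicot seeds are planted in soil and treated prior to emergence with an aqueous acetone spray (about 0.0156-0.500 kg/ha). Plants are assessed visually against control on a 0-9 scale after 4-5 weeks.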

ABUTH (Velvetleaf) = test: Preemergence herbicidal evaluation; format: in vivo, Abutilon theophrasti; settings: rated 4-5 weeks after treatment
Summary of the method: as §1

CASOB (Sicklepod) [1] = test: Preemergence herbicidal evaluation; format: in vivo, Cassia obtusifolia; settings: rated 4-5 weeks after treatment
Summary of the method: as §1

[2] = system: SAGPY (Arrowhead (Pygmaea)); test: Postemergence weed control under flooded paddy conditions; format: in vivo, Sagittaria pygmaea; settings: postemergence weeds, rated 3 to 4 weeks after treatment
Summary of the method: (§2)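 Containers holding 3–5 cm weeds and rice at 1.5–2.5 leaves are flooded to 1.5–3 cm above soil. Compound in 50/50 v/v aqueous/acetone is then added directly to the water, about 0.0313–0.500 kg/ha. Plants are kept in the greenhouse and rated 0–9 visually at 3–4 weeks.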

[3] = system: TRZAWR (Wheat, Winter, cv Riband); test: Preemergence herbicidal evaluation; format: in vivo, Triticum aestivum; settings: rated 4-5 weeks after treatment
Summary of the method: as §1

MOOVA (Monochoria) = test: Preemergence weed control under flooded paddy conditions; format: in vivo, Monochoria vaginalis; settings: rated 3-4 weeks after treatment
Summary of the method: (§3)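 Flooded-pot preemergence screen with silt loam and seeds in the upper 0.5 cm. Dose about 0.0313 to 0.500 kg/ha, delivered into flood water; visual 0-9 score after 3 to 4 weeks.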

CASOB (Sicklepod) [4] = test: Postemergence herbicidal evaluation; format: in vivo, Cassia obtusifolia; settings: postemergence
Summary of the method: (§4)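 ~2-wk seedlings; postemergence spray, 40 psi; vehicle 1:1 acetone:water + 0.5% Tween 20; rate ≈0.0156–0.500 kg/ha; greenhouse hold; scored 4–5 wk after treatment, 0–9 scale vs control; repeat tests averaged.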

ORYSAT (Rice, Tebonnet) [5] = test: Preemergence herbicidal evaluation; format: in vivo, Oryza sativa, (L.) Tebonnet; settings: rated 4-5 weeks after treatment
Summary of the method: as §1

CYPSE (Flatsedge) = test: Postemergence weed control under flooded paddy conditions; format: in vivo, Cyperus serotinus; settings: postemergence weeds, rated 3 to 4 weeks after treatment
Summary of the method: as §2

AMBEL (Ragweed, Common) = test: Preemergence herbicidal evaluation; format: in vivo, Ambrosia artemisifolia; settings: rated 4-5 weeks after treatment
Summary of the method: as §1

ORYSAT (Rice, Tebonnet) [6] = test: Postemergence herbicidal evaluation; format: in vivo, Oryza sativa, (L.) Tebonnet; settings: postemergence
Summary of the method: as §4

[7] = system: TRZAWR (Wheat, Winter, cv Riband); test: Postemergence herbicidal evaluation; format: in vivo, Triticum aestivum; settings: postemergence
Summary of the method: as §4

ECHCG (Barnyardgrass) = test: Postemergence herbicidal evaluation; format: in vivo, Echinochloa crus-galli; settings: postemergence
Summary of the method: as §4

[8] = system: ECHORC (Watergrass (Calif.)); test: Preemergence weed control under flooded paddy conditions; format: in vivo, Echinochloa oryzoides; settings: rated 3-4 weeks after treatment
Summary of the method: as §3

Compound: CCOC(=O)CN1C(=O)C(Cc2ccccc2OC(C)C(=O)O)S/C1=N/c1cc(-n2c(=O)cc(C(F)(F)F)n(C)c2=O)c(F)cc1Cl (stereo not shown) [Compound 114, 5-[o-(1-Carboxyethoxy)benzyl]-2-{{2-chloro-5-[3,6-dihydro-3-methyl-2,6-dioxo-4-(trifluoromethyl)-1(2H)-pyrimidinyl]-4-fluorophenyl}imino}-4-oxo-3-thiazolidineacetic acid, 3-ethyl ester]
- Preemergence herbicidal rating ZEAMX (ZEAMX (Corn, Field); rate 0.0156 kg/ha): 0.0
- Preemergence herbicidal rating ZEAMX (ZEAMX (Corn, Field); rate 0.0313 kg/ha): 1.0
- Preemergence herbicidal rating ZEAMX (ZEAMX (Corn, Field); rate 0.0625 kg/ha): 1.0
- Preemergence herbicidal rating ZEAMX (ZEAMX (Corn, Field); rate 0.1250 kg/ha): 1.0
- Preemergence herbicidal rating ZEAMX (ZEAMX (Corn, Field); rate 0.2500 kg/ha): 2.0
- Preemergence herbicidal rating ABUTH (ABUTH (Velvetleaf); rate 0.0156 kg/ha): 0.0
- Preemergence herbicidal rating ABUTH (ABUTH (Velvetleaf); rate 0.0313 kg/ha): 1.0
- Preemergence herbicidal rating ABUTH (ABUTH (Velvetleaf); rate 0.0625 kg/ha): 6.0
- Preemergence herbicidal rating ABUTH (ABUTH (Velvetleaf); rate 0.1250 kg/ha): 9.0
- Preemergence herbicidal rating ABUTH (ABUTH (Velvetleaf); rate 0.2500 kg/ha): 9.0
- Preemergence herbicidal rating CASOB (CASOB (Sicklepod) [1]; rate 0.0156 kg/ha): 0.0
- Preemergence herbicidal rating CASOB (CASOB (Sicklepod) [1]; rate 0.0313 kg/ha): 0.0
- Preemergence herbicidal rating CASOB (CASOB (Sicklepod) [1]; rate 0.0625 kg/ha): 1.0
- Preemergence herbicidal rating CASOB (CASOB (Sicklepod) [1]; rate 0.1250 kg/ha): 3.0
- Preemergence herbicidal rating CASOB (CASOB (Sicklepod) [1]; rate 0.2500 kg/ha): 9.0
- Herbicidal rating SAGPY ([2]; Rate 0.0313 kg/ha): 0.0
- Herbicidal rating SAGPY ([2]; Rate 0.0625 kg/ha): 0.0
- Herbicidal rating SAGPY ([2]; Rate 0.1250 kg/ha): 0.0
- Herbicidal rating SAGPY ([2]; Rate 0.2500 kg/ha): 0.0
- Preemergence herbicidal rating TRZAWR ([3]; rate 0.0156 kg/ha): 0.0
- Preemergence herbicidal rating TRZAWR ([3]; rate 0.0313 kg/ha): 0.0
- Preemergence herbicidal rating TRZAWR ([3]; rate 0.0625 kg/ha): 0.0
- Preemergence herbicidal rating TRZAWR ([3]; rate 0.1250 kg/ha): 1.0
- Preemergence herbicidal rating TRZAWR ([3]; rate 0.2500 kg/ha): 3.0
- MOOVA herbicidal effect rating (MOOVA (Monochoria); 0.0313 kg/ha): 9.0
- MOOVA herbicidal effect rating (MOOVA (Monochoria); 0.0625 kg/ha): 9.0
- MOOVA herbicidal effect rating (MOOVA (Monochoria); 0.1250 kg/ha): 9.0
- MOOVA herbicidal effect rating (MOOVA (Monochoria); 0.2500 kg/ha): 9.0
- herbicidal rating CASOB (CASOB (Sicklepod) [4]; rate 0.0158 kg/ha): 1.0
- herbicidal rating CASOB (CASOB (Sicklepod) [4]; rate 0.0315 kg/ha): 1.0
- herbicidal rating CASOB (CASOB (Sicklepod) [4]; rate 0.0630 kg/ha): 1.0
- Preemergence herbicidal rating ORYSAT (ORYSAT (Rice, Tebonnet) [5]; rate 0.0156 kg/ha): 0.0
- Preemergence herbicidal rating ORYSAT (ORYSAT (Rice, Tebonnet) [5]; rate 0.0313 kg/ha): 0.0
- Preemergence herbicidal rating ORYSAT (ORYSAT (Rice, Tebonnet) [5]; rate 0.0625 kg/ha): 0.0
- Preemergence herbicidal rating ORYSAT (ORYSAT (Rice, Tebonnet) [5]; rate 0.1250 kg/ha): 2.0
- Preemergence herbicidal rating ORYSAT (ORYSAT (Rice, Tebonnet) [5]; rate 0.2500 kg/ha): 2.0
- Herbicidal rating CYPSE (CYPSE (Flatsedge); Rate 0.0313 kg/ha): 0.0
- Herbicidal rating CYPSE (CYPSE (Flatsedge); Rate 0.0625 kg/ha): 0.0
- Herbicidal rating CYPSE (CYPSE (Flatsedge); Rate 0.1250 kg/ha): 0.0
- Herbicidal rating CYPSE (CYPSE (Flatsedge); Rate 0.2500 kg/ha): 0.0
- Preemergence herbicidal rating AMBEL (AMBEL (Ragweed, Common); rate 0.0156 kg/ha): 0.0
- Preemergence herbicidal rating AMBEL (AMBEL (Ragweed, Common); rate 0.0313 kg/ha): 0.0
- Preemergence herbicidal rating AMBEL (AMBEL (Ragweed, Common); rate 0.0625 kg/ha): 0.0
- Preemergence herbicidal rating AMBEL (AMBEL (Ragweed, Common); rate 0.1250 kg/ha): 5.0
- Preemergence herbicidal rating AMBEL (AMBEL (Ragweed, Common); rate 0.2500 kg/ha): 7.0
- herbicidal rating ORYSAT (ORYSAT (Rice, Tebonnet) [6]; rate 0.0158 kg/ha): 1.5
- herbicidal rating ORYSAT (ORYSAT (Rice, Tebonnet) [6]; rate 0.0315 kg/ha): 2.0
- herbicidal rating ORYSAT (ORYSAT (Rice, Tebonnet) [6]; rate 0.0630 kg/ha): 3.0
- herbicidal rating TRZAWR ([7]; rate 0.0158 kg/ha): 2.0
- herbicidal rating TRZAWR ([7]; rate 0.0315 kg/ha): 3.0
- herbicidal rating TRZAWR ([7]; rate 0.0630 kg/ha): 4.0
- herbicidal rating ECHCG (ECHCG (Barnyardgrass); rate 0.0158 kg/ha): 0.0
- herbicidal rating ECHCG (ECHCG (Barnyardgrass); rate 0.0315 kg/ha): 1.0
- herbicidal rating ECHCG (ECHCG (Barnyardgrass); rate 0.0630 kg/ha): 4.0
- ECHORC herbicidal effect rating ([8]; 0.0313 kg/ha): 6.0
- ECHORC herbicidal effect rating ([8]; 0.0625 kg/ha): 7.0
- ECHORC herbicidal effect rating ([8]; 0.1250 kg/ha): 7.0
- ECHORC herbicidal effect rating ([8]; 0.2500 kg/ha): 8.0
